{"source": "patent US20230346961A1", "about": "“GLP-1 AND GIP RECEPTOR CO-AGONISTS” (Novo Nordisk A/S, priority 2020, published 2023)", "key": {"[1]": {"molecular_target": "human GLP-1 receptor (Homo sapiens, UniProt P43220)", "sequence (P43220 24-463)": "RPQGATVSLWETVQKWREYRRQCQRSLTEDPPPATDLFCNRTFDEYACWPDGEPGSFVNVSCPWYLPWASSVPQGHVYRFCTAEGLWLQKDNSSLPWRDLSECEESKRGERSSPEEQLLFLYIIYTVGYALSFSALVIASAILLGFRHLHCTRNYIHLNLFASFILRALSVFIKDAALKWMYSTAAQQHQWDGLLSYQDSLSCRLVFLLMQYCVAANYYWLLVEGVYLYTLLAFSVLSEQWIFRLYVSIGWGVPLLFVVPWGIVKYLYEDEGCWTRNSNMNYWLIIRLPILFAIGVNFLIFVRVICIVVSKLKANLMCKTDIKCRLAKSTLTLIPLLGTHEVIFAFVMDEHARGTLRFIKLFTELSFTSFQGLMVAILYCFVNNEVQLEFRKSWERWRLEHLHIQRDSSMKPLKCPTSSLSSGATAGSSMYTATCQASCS", "test": "cell-based", "conditions": "hGLP-1R"}, "[2]": {"molecular_target": "T1, mouse GLP-1 receptor (Mus musculus, UniProt O35659)", "T1 sequence (O35659 22-463)": "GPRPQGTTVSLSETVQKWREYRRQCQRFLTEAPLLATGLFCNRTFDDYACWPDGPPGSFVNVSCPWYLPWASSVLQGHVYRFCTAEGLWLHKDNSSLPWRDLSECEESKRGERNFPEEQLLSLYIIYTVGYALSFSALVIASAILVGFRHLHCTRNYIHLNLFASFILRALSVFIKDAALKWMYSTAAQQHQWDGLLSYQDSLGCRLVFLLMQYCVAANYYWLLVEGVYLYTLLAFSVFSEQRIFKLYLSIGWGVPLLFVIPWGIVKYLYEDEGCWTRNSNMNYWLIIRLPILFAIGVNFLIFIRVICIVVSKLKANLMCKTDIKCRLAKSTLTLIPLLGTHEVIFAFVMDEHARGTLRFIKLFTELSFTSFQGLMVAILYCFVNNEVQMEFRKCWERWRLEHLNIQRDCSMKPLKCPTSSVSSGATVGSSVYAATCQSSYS"}, "[3]": {"test": "Pharmacokinetic study in minipigs (terminal half-life after i.v. administration)", "format": "in vivo", "conditions": "female, Göttingen, minipig, iv", "procedure": "The purpose of this example is to determine the half-life in vivo of the derivatives of the present invention after i.v. administration to minipigs, i.e. the prolongation of their time in the body and thereby their time of action. This is done in a pharmacokinetic (PK) study, where the terminal half-life of the derivative in question is determined. By terminal half-life is generally meant the period of time it takes to […] certain plasma concentration, measured after the initial distribution phase. Female Göttingen minipigs were obtained from Ellegaard Göttingen Minipigs (Dalmose, Denmark) approximately 7-14 months of age and weighing from approximately 16-35 kg were used in the studies. The minipigs were housed individually and fed restrictedly once daily with SDS minipig diet (Special Diets Services, Essex, UK). After at 3 weeks of acclimatisation two permanent central venous catheters were implanted in vena cava caudalis in each animal. The animals were allowed 1 week recovery after the surgery, and were then used for repeated pharmacokinetic studies with a suitable wash-out period between successive derivative dosing. The animals were fasted for approximately 18 hours before dosing and from 0 to 4 hours after dosing, but had adlibitum access to water during the whole period. […] Blood samples (for example 0.8 mL) were collected in 8 mM EDTA buffer and then centrifuged at 4° C. and 1942 g for 10 minutes. Plasma was pipetted into Micronic tubes on dry ice and kept at -20° C. until analysed for plasma concentration of the compounds using ELISA, or a similar antibody-based assay, or LCMS. […] (Pharsight Inc., Mountain View, CA, USA), and the resulting terminal half-lives (harmonic mean) determined."}, "[4]": {"molecular_target": "human glucagon receptor (Homo sapiens, UniProt P47871)", "sequence (P47871 26-477)": "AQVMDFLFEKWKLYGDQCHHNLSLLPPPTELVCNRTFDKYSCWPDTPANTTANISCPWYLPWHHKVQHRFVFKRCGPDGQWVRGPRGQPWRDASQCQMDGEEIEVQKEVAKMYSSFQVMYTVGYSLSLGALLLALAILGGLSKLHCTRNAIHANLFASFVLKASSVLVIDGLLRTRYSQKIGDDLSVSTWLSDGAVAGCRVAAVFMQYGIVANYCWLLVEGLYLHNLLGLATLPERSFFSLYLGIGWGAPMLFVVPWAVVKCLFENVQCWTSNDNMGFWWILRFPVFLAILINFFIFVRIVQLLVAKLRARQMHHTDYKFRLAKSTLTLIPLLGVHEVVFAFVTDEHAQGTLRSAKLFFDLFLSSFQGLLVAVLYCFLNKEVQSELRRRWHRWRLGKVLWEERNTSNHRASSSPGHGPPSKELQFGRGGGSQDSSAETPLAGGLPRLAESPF", "test": "cell-based", "description": "The in vitro functional potency is the measure of target receptor activation in a whole cell assay.\nIn vitro functional potency was determined by measuring the response of the target receptor in a reporter gene assay in individual cell lines. […] When the respective receptor is activated, it results in the production of cAMP, which in turn results in expression of the luciferase protein. When assay incubation is completed, luciferase substrate (luciferin) is added resulting in the enzymatic conversion of luciferin to oxyluciferin and producing bioluminescence. The luminescence is measured as the readout for the assay.\nThe cells lines used in these assays were BHK cells with BHKTS13 as a parent cell line. The cell lines were derived from a clone containing the CRE luciferase element and were established by further transfection with the respective receptor to obtain the relevant cell line.\nThe cells were cultured at 37° C. with 5% CO2 in Cell Culture Medium. They were aliquoted and stored in liquid nitrogen. The cells were kept in continuous culture and were seeded out the day before each assay.\nGLP-1R and GcgR Cell Culture Medium consisted of DMEM medium with 10% FBS, 500 μg/mL G418, and 300 μg/mL hygromycin. GIPR Cell Culture Medium consisted of DMEM medium with 10% FBS, 400 μg/mL G418, and 300 μg/mL hygromycin. Assay Buffer consisted of DMEM w/o phenol red, 10 mM Hepes, 1×Glutamax, 1% ovalbumin, and 0.1% Pluronic F-68 with the addition of HSA at twice the final assay concentration.\n• 1) Cells were plated at 5000 cells/well and incubated overnight in the assay plate. • 2) Cells were washed once in DPBS. • 3) Stocks of the test compounds and reference compounds in concentrations ranging from 100-300 μM were diluted 1:150 in Assay Buffer. Compounds were then diluted 1:10 in column 1 of a 96 deep well dilution plate and then carried across the row creating a 3.5 fold, 12 point dilution curve. • 4) Assay Buffer (50 μl aliquot) with or without HSA was added to each well in the assay plate. • 5) A 50 μl aliquot of compound or blank was transferred from the dilution plate to the assay plate containing the Assay Buffer with or without HSA. • 6) The assay plate was incubated for 3 h in a 5% CO2 incubator at 37° C. 7) The cells were washed once with DPBS. • 8) A 100 μl aliquot of DPBS was added to each well of the assay plate. • 9) A 100 μl aliquot of steadylite plus reagent (light sensitive) was added to each well of the assay plate. • 10) Each assay plate was covered with aluminum foil to protect it from light and shaken at 250 RPM for 30 min at room temperature. • 11) Each assay plate was read in a microtiter plate reader.\nThe data from the microtiter plate reader was first regressed in an Excel in order to calculate the x-axis, log scale concentrations based on the individual test compound's stock concentration and the dilutions of the assay. […] The software performs a non-linear regression (log(agonist) vs response). A minimum of two replicates was measured for each sample. The reported values are averages of the replicates."}, "[5]": {"molecular_target": "T2, mouse GIP receptor (Mus musculus, UniProt Q0P543)", "T2 sequence (Q0P543 19-460)": "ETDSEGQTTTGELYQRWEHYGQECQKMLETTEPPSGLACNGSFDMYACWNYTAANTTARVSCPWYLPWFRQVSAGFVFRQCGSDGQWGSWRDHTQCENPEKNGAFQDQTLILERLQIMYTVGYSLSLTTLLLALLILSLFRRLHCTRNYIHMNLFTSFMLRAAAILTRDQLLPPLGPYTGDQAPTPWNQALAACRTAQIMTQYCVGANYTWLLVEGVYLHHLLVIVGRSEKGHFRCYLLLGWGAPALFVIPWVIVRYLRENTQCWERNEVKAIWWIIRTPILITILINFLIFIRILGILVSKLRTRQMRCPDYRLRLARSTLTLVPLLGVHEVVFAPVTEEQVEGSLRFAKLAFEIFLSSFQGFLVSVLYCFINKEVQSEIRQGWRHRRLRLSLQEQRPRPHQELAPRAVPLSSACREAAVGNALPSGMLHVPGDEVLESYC", "test": "cell-based"}}, "note": "Where two headings read alike, the source gives them in different places. Starred links: 1 amine or outer side, 2 acyl side, 3 side chain; linkers in the order of their positions; H or OH if unused. Non-standard residues stand in square brackets, D forms with d. Residues, ends and D or L forms follow the SMILES beside them. Groups on a side chain read outwards from the residue. *: point of attachment. C20 diacid = O=C(O)CCCCCCCCCCCCCCCCCCC(=O)*; γGlu = O=C(O)[C@H](CCC(=O)[*:2])N[*:1]; εLys = N[C@@H](CCCCN[*:1])C(=O)[*:2]; Trx = NC[C@H]1CC[C@H](C(=O)O)CC1; AEEA = NCCOCCOCC(=O)O; Aib = CC(C)(N)C(=O)O"}
{"smiles": "CC[C@H](C)[C@H](NC(=O)[C@H](CO)NC(=O)[C@H](Cc1ccc(O)cc1)NC(=O)[C@H](CC(=O)O)NC(=O)[C@H](CO)NC(=O)[C@@H](NC(=O)[C@H](Cc1ccccc1)NC(=O)[C@@H](NC(=O)CNC(=O)[C@H](CCC(=O)O)NC(=O)C(C)(C)NC(=O)[C@@H](N)Cc1ccc(O)cc1)[C@@H](C)O)[C@@H](C)O)C(=O)N[C@@H](Cc1ccc(O)cc1)C(=O)N[C@@H](CC(C)C)C(=O)N[C@@H](CCC(=O)O)C(=O)N[C@@H](CCCCNC(=O)COCCOCCNC(=O)COCCOCCNC(=O)CC[C@H](NC(=O)[C@H]1CC[C@H](CNC(=O)CCCCCCCCCCCCCCCCCCC(=O)O)CC1)C(=O)O)C(=O)N[C@@H](CCC(N)=O)C(=O)N[C@@H](C)C(=O)N[C@@H](C)C(=O)NC(C)(C)C(=O)N[C@@H](CCC(=O)O)C(=O)N[C@@H](Cc1ccccc1)C(=O)N[C@H](C(=O)N[C@@H](CC(N)=O)C(=O)N[C@@H](Cc1c[nH]c2ccccc12)C(=O)N[C@@H](CC(C)C)C(=O)N[C@@H](CC(C)C)C(=O)N[C@@H](C)C(=O)NCC(=O)NCC(=O)N1CCC[C@H]1C(=O)N[C@@H](CO)C(=O)N[C@@H](CO)C(=O)NCC(=O)N[C@@H](C)C(=O)N1CCC[C@H]1C(=O)N1CCC[C@H]1C(=O)N1CCC[C@H]1C(=O)N[C@@H](CO)C(N)=O)C(C)C", "note": "[Compound 21] (H-Y[Aib]EGTFTSDYSIYLEK([AEEA-AEEA-γGlu-Trx-C20 diacid])QAA[Aib]EFVNWLLAGGPSSGAPPPS-NH2; N-terminus assumed)", "values": [{"measurement": "EC50", "setting": "[1]; CRE Luc 0% HSA EC50, 0% HSA", "result": 0.003, "unit": "nM"}, {"measurement": "EC50", "setting": "[1]; CRE Luc 1% HSA EC50, 1% HSA", "result": 0.465, "unit": "nM"}, {"measurement": "EC50", "setting": "[2]", "result": 0.0026, "unit": "nM"}, {"measurement": "half-life", "setting": "[3]; in vivo", "result": 62, "unit": "h"}, {"measurement": "EC50", "setting": "[4]", "result": "> 10", "unit": "nM"}, {"measurement": "EC50", "setting": "[5]", "result": 0.0366, "unit": "nM"}]}
{"smiles": "CC[C@H](C)[C@H](NC(=O)[C@H](CO)NC(=O)[C@H](Cc1ccc(O)cc1)NC(=O)[C@H](CC(=O)O)NC(=O)[C@H](CO)NC(=O)[C@@H](NC(=O)[C@H](Cc1ccccc1)NC(=O)[C@@H](NC(=O)CNC(=O)[C@H](CCC(=O)O)NC(=O)C(C)(C)NC(=O)[C@@H](N)Cc1ccc(O)cc1)[C@@H](C)O)[C@@H](C)O)C(=O)N[C@@H](Cc1ccc(O)cc1)C(=O)N[C@@H](CC(C)C)C(=O)N[C@@H](CCC(=O)O)C(=O)N[C@@H](CCCCN)C(=O)N[C@@H](CCCCNC(=O)COCCOCCNC(=O)COCCOCCNC(=O)CC[C@H](NC(=O)[C@H]1CC[C@H](CNC(=O)CCCCCCCCCCCCCCCCCCC(=O)O)CC1)C(=O)O)C(=O)N[C@@H](C)C(=O)N[C@@H](C)C(=O)NC(C)(C)C(=O)N[C@@H](CCC(=O)O)C(=O)N[C@@H](Cc1ccccc1)C(=O)N[C@H](C(=O)N[C@@H](CC(N)=O)C(=O)N[C@@H](Cc1c[nH]c2ccccc12)C(=O)N[C@@H](CC(C)C)C(=O)N[C@@H](CC(C)C)C(=O)N[C@@H](C)C(=O)NCC(=O)NCC(=O)N1CCC[C@H]1C(=O)N[C@@H](CO)C(=O)N[C@@H](CO)C(=O)NCC(=O)N[C@@H](C)C(=O)N1CCC[C@H]1C(=O)N1CCC[C@H]1C(=O)N1CCC[C@H]1C(=O)N[C@@H](CO)C(N)=O)C(C)C", "note": "[Compound 22] (H-Y[Aib]EGTFTSDYSIYLEKK([AEEA-AEEA-γGlu-Trx-C20 diacid])AA[Aib]EFVNWLLAGGPSSGAPPPS-NH2; N-terminus assumed)", "values": [{"measurement": "EC50", "setting": "[1]; CRE Luc 0% HSA EC50, 0% HSA", "result": 0.0033, "unit": "nM"}, {"measurement": "EC50", "setting": "[1]; CRE Luc 1% HSA EC50, 1% HSA", "result": 1.13, "unit": "nM"}, {"measurement": "EC50", "setting": "[2]", "result": 0.0021, "unit": "nM"}, {"measurement": "half-life", "setting": "[3]; in vivo", "result": 95, "unit": "h"}, {"measurement": "EC50", "setting": "[4]", "result": "> 10", "unit": "nM"}, {"measurement": "EC50", "setting": "[5]", "result": 0.124, "unit": "nM"}]}
{"smiles": "CC[C@H](C)[C@H](NC(=O)[C@H](CO)NC(=O)[C@H](Cc1ccc(O)cc1)NC(=O)[C@H](CC(=O)O)NC(=O)[C@H](CO)NC(=O)[C@@H](NC(=O)[C@H](Cc1ccccc1)NC(=O)[C@@H](NC(=O)CNC(=O)[C@H](CCC(=O)O)NC(=O)C(C)(C)NC(=O)[C@@H](N)Cc1ccc(O)cc1)[C@@H](C)O)[C@@H](C)O)C(=O)N[C@@H](Cc1ccc(O)cc1)C(=O)N[C@@H](CC(C)C)C(=O)N[C@@H](CCC(=O)O)C(=O)N[C@@H](CCCCNC(=O)[C@@H](N)CCCCNC(=O)[C@@H](N)CCCCNC(=O)CC[C@H](NC(=O)CCCCCCCCCCCCCCCCCCC(=O)O)C(=O)O)C(=O)N[C@@H](CCC(N)=O)C(=O)N[C@@H](C)C(=O)N[C@@H](C)C(=O)NC(C)(C)C(=O)N[C@@H](CCC(=O)O)C(=O)N[C@@H](Cc1ccccc1)C(=O)N[C@H](C(=O)N[C@@H](CC(N)=O)C(=O)N[C@@H](Cc1c[nH]c2ccccc12)C(=O)N[C@@H](CC(C)C)C(=O)N[C@@H](CC(C)C)C(=O)N[C@@H](C)C(=O)NCC(=O)NCC(=O)N1CCC[C@H]1C(=O)N[C@@H](CO)C(=O)N[C@@H](CO)C(=O)NCC(=O)N[C@@H](C)C(=O)N1CCC[C@H]1C(=O)N1CCC[C@H]1C(=O)N1CCC[C@H]1C(=O)N[C@@H](CO)C(N)=O)C(C)C", "note": "[Compound 28] (H-Y[Aib]EGTFTSDYSIYLEK([εLys-εLys-γGlu-C20 diacid])QAA[Aib]EFVNWLLAGGPSSGAPPPS-NH2; N-terminus assumed)", "values": [{"measurement": "EC50", "setting": "[1]; CRE Luc 0% HSA EC50, 0% HSA", "result": 0.005, "unit": "nM"}, {"measurement": "EC50", "setting": "[1]; CRE Luc 1% HSA EC50, 1% HSA", "result": 0.356, "unit": "nM"}, {"measurement": "EC50", "setting": "[2]", "result": 0.0023, "unit": "nM"}, {"measurement": "half-life", "setting": "[3]; plasma, minipigs, i.v. administration, harmonic mean, read-out: Terminal half-life t1/2 (converted)", "result": 111, "unit": "h"}, {"measurement": "EC50", "setting": "[4]", "result": "> 10", "unit": "nM"}, {"measurement": "EC50", "setting": "[5]", "result": 0.026, "unit": "nM"}]}
